# From US20140037642A1, “METHODS AND COMPOSITIONS RELATING TO INHIBITION OF IGF-1R” (AMGEN INC., priority 2011, published 2014)
# Columns and labels:
# [1] = tested on: metastatic pancreatic cancer patients; test: Placebo-controlled, randomized phase 2 study plus gemcitabine; format: in vivo, human
# Experimental: The primary endpoint was six month overall survival rate.
# Key inclusion criteria were histologically or cytologically documented metastatic adenocarcinoma of the pancreas, age eighteen years or older, ECOG PS 0 or 1, adequate hematologic, hepatic, renal, and coagulation function, amylase and lipase≦2.0×ULN, adequately controlled type 1 or 2 diabetes (amended during protocol to fasting blood glucose<[…] only), fasting blood glucose≦[…], HbAlc<8%, and written informed consent.
# Key exclusion criteria were uncontrolled cardiac disease and prior chemotherapy or radiation in the adjuvant or metastatic setting.
# [2] = tested on: metastatic pancreatic cancer patients; test: Overall survival in baseline circulating biomarker subgroups of the phase 2 study; format: in vivo, human; set-up: Median OS: unit not given here
# From the text: To establish the relationship between levels of these baseline markers and overall survival, a Cox proportional hazard model was used to calculate hazard ratios (HR) using normalized log transformed marker concentrations. This analysis tests the risk of death associated with a unit increase in the normalized log baseline biomarker and this risk is expressed as a hazard ratio. Because of the small sample size, it is difficult to dissect prognostic associations from relationships that are modified by treatment with ganitumab relative to placebo, i.e., predictive. This is because the addition of treatment effect adds a variable to the analysis that compromises the power of the test masking significant predictive relationships that may exist. However even a prognostic relationship identified in this analysis is important because it informs the hypothesized relationship between circulating bioavailable ligands and the adaptation of the tumor to IGF-1R dependent progression, and in turn sensitivity to inhibitors that block IGF-1R or downstream signaling pathways.
# This allows a direct test of the predictive value of using these markers in a dichotomized way to predict OS in pancreatic cancer patients that are treated with inhibitors of IGF-1R.
# To represent these relationships Kaplan-Maier plots were generated that show the OS for the high and low subgroups by plotting the fraction of patients in each sub-group that survive against time.
# [3] = target: IGF-1R (Homo sapiens, UniProt P08069); conditions: biphasic binding; read-out: KD of high affinity binding to IGF-1R; cited from earlier work
# [4] = patients with measurable disease at baseline, plus gemcitabine
# [5] = plus gemcitabine, conatumumab 10 mg/kg Q2W or ganitumab 12 mg/kg Q2W
# [6] = plus gemcitabine, conatumumab 10 mg/kg Q2W or ganitumab 12 mg/kg Q2W, listed as conatumumab
# [7] = versus placebo plus gemcitabine
substance,measurement,setting,value
"Conatumumab: conatumumab (AMG 655), amino acid sequences in FIG. 19; given with gemcitabine in the phase 2 study",Best Overall Response: Confirmed CR - n (%),[1]; [4],0 (0) n (%)
same,Best Overall Response: Confirmed PR - n (%),[1]; [4],1 (3) n (%)
same,Best Overall Response: PD - n (%),[1]; [4],12 (32) n (%)
same,Best Overall Response: SD (Includes Unconfirmed PR) - n (%),[1]; [4],22 (58) n (%)
same,Best Overall Response: Unconfirmed PR - n (%),[1]; [4],2 (5) n (%)
same,Best Overall Response: Unknown - n (%),[1]; [4],3 (8) n (%)
same,"Abdominal pain, grade 3-5",[1]; plus gemcitabine,7 (17) n (%)
same,"Anemia, grade 3-5",[1]; plus gemcitabine,4 (10) n (%)
same,"Aspartate Aminotransferase Increased, grade 3-5",[1]; plus gemcitabine,3 (7) n (%)
same,"Deep Vein Thrombosis, grade 3-5",[1]; plus gemcitabine,4 (10) n (%)
same,"Fatigue, grade 3-5",[1]; plus gemcitabine,5 (12) n (%)
same,"Hyperbilirubinemia, grade 3-5",[1]; plus gemcitabine,2 (5) n (%)
same,"Hyperglycemia, grade 3-5",[1]; plus gemcitabine,1 (2) n (%)
same,"Hypotension, grade 3-5",[1]; plus gemcitabine,3 (7) n (%)
same,"Neutropenia, grade 3-5",[1]; plus gemcitabine,9 (22) n (%)
same,"Pulmonary Embolism, grade 3-5",[1]; plus gemcitabine,1 (2) n (%)
same,"Thrombocytopenia, grade 3-5",[1]; plus gemcitabine,7 (17) n (%)
same,rate of SD+PR,[1]; plus gemcitabine,61%
same,6-Month OS Rate (95% CI),[1]; [5],"59% (42, 73)"
same,12-Month OS Rate (95% CI),[1]; [5],"20% (9, 34)"
same,"Median OS, Months (95% CI)",[1]; [5],"7.5 (4.8, 10.0) Months"
same,"Median PFS, Months (95% CI)",[1]; [5],"4.0 (3.3, 5.0) Months"
same,6-Month OS Rate (95% CI),[1]; [6],59%
same,"Median PFS, Months (95% CI)",[1]; [6],4.0 Months
same,"Number of Patients Reporting ≧1 AE, grade 3-5","[1]; plus gemcitabine, conatumumab N = 41, ganitumab N = 40",36 (88) n (%)
same,"Stratified HR (95% CI), OS",[1]; [7],"0.87 (0.53, 1.43)"
same,"Stratified HR (95% CI), PFS",[1]; [7],"0.65 (0.41, 1.05)"
same,"Stratified HR (95% CI), PFS","[1]; versus placebo plus gemcitabine, listed as conatumumab",0.65
same,Median OS,[2]; IGF-2 High (>=median),214
same,"OS HR, treatment vs placebo",[2]; IGF-2 High (>=median),0.56
same,Median OS,[2]; IGF-2 Low (<median),263
same,"OS HR, treatment vs placebo",[2]; IGF-2 Low (<median),1.08
same,Median OS,[2]; IGF-BP1 High (>=median),178
same,"OS HR, treatment vs placebo",[2]; IGF-BP1 High (>=median),0.77
same,Median OS,[2]; IGF-BP1 Low (<median),254
same,"OS HR, treatment vs placebo",[2]; IGF-BP1 Low (<median),0.68
same,Median OS,[2]; IGF-BP2 High (>=median),178
same,"OS HR, treatment vs placebo",[2]; IGF-BP2 High (>=median),0.69
same,Median OS,[2]; IGF-BP2 Low (<median),244
same,"OS HR, treatment vs placebo",[2]; IGF-BP2 Low (<median),0.91
same,Median OS,[2]; IGF-BP3 High (>=median),244
same,"OS HR, treatment vs placebo",[2]; IGF-BP3 High (>=median),0.77
same,Median OS,[2]; IGF-BP3 Low (<median),129
same,"OS HR, treatment vs placebo",[2]; IGF-BP3 Low (<median),0.86
same,Median OS,[2]; IGF-BP4 High (>=median),216
same,"OS HR, treatment vs placebo",[2]; IGF-BP4 High (>=median),0.97
same,Median OS,[2]; IGF-BP4 Low (<median),216
same,"OS HR, treatment vs placebo",[2]; IGF-BP4 Low (<median),0.86
same,Median OS,[2]; Total IGF-1 High (>=median),231
same,"OS HR, treatment vs placebo",[2]; Total IGF-1 High (>=median),0.56
same,Median OS,[2]; Total IGF-1 Low (<median),178
same,"OS HR, treatment vs placebo",[2]; Total IGF-1 Low (<median),0.53
"IGF-2: insulin-like growth factor, ligand of IGF-1R",Kd,[3],~0.2 nM
